Experimental data taken from the supplement of paper PMC5908809.

Assays:
[1] = system: normal NK cells expanded with K562-aAPC; assay: drug sensitivity score (DSS) (DSS units); higher = more sensitive; extreme values may be limits of the assay; conditions: 72 h; IL-2 2.5 ng/mL
Description: (§1)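 Drug sensitivity and resistance testing on K562-aAPC-expanded normal NK cells: 5 concentrations (10-fold steps over a 10,000-fold range), 72 h at 37 °C, viability by CellTiter-Glo normalised to DMSO and benzethonium chloride controls; DSS from the fitted curve.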

NK-92 (IL-2 2.5 ng/mL) [2] = assay: as above; conditions: 72 h
NK-YS (IL-2 2.5 ng/mL) [3] = assay: as above; conditions: 72 h
[4] = system: normal primary NK cells, pool 3 (3 donors) (IL-2 2.5 ng/mL); assay: as above; conditions: 72 h
[5] = system: normal primary NK cells, pool 1 (3 donors), resting (IL-2 0 ng/mL); assay: as above; conditions: 72 h
KHYG-1 (IL-2 2.5 ng/mL) [6] = assay: as above; conditions: 72 h
[7] = system: normal primary NK cells, pool 1 (3 donors) (IL-2 2.5 ng/mL); assay: as above; conditions: 72 h
[8] = system: normal primary NK cells, pool 2 (3 donors) (IL-2 2.5 ng/mL); assay: as above; conditions: 72 h
SNK-6 (IL-2 2.5 ng/mL) [9] = assay: as above; conditions: 72 h
KAI3 (IL-2 2.5 ng/mL) [10] = assay: as above; conditions: 72 h
NKL (IL-2 2.5 ng/mL) [11] = assay: as above; conditions: 72 h
IMC-1 (IL-2 20 ng/mL) [12] = assay: as above; conditions: 72 h
YT (IL-2 2.5 ng/mL) [13] = assay: as above; conditions: 72 h
DERL-7 (IL-2 2.5 ng/mL) [14] = assay: as above; conditions: 72 h
NK-92 (IL-2 2.5 ng/mL) [15] = assay: percent inhibition of viability; higher = more inhibition; conditions: 72 h
NK-YS (IL-2 2.5 ng/mL) [16] = assay: as above; conditions: 72 h
[17] = system: normal primary NK cells, pool 3 (3 donors) (IL-2 2.5 ng/mL); assay: as above; conditions: 72 h
[18] = system: normal primary NK cells, pool 1 (3 donors), resting (IL-2 0 ng/mL); assay: as above; conditions: 72 h
KHYG-1 (IL-2 2.5 ng/mL) [19] = assay: as above; conditions: 72 h
[20] = system: normal primary NK cells, pool 1 (3 donors) (IL-2 2.5 ng/mL); assay: as above; conditions: 72 h
[21] = system: normal primary NK cells, pool 2 (3 donors) (IL-2 2.5 ng/mL); assay: as above; conditions: 72 h
SNK-6 (IL-2 2.5 ng/mL) [22] = assay: as above; conditions: 72 h
KAI3 (IL-2 2.5 ng/mL) [23] = assay: as above; conditions: 72 h
NKL (IL-2 2.5 ng/mL) [24] = assay: as above; conditions: 72 h
IMC-1 (IL-2 20 ng/mL) [25] = assay: as above; conditions: 72 h
YT (IL-2 2.5 ng/mL) [26] = assay: as above; conditions: 72 h
DERL-7 (IL-2 2.5 ng/mL) [27] = assay: as above; conditions: 72 h
[28] = system: normal NK cells expanded with K562-aAPC; assay: as above; conditions: 72 h, IL-2 2.5 ng/mL
Description: as §1

CNC(=O)c1ccccc1Sc1ccc2c(/C=C/c3ccccn3)n[nH]c2c1 [Axitinib] (max concentration tested 10000 nM)
Conditions | drug sensitivity score
DERL-7 (IL-2 2.5 ng/mL) [14] | 15.7
IMC-1 (IL-2 20 ng/mL) [12] | 5.63
KAI3 (IL-2 2.5 ng/mL) [10] | 10.5
KHYG-1 (IL-2 2.5 ng/mL) [6] | 11
NK-92 (IL-2 2.5 ng/mL) [2] | 8.68
NK-YS (IL-2 2.5 ng/mL) [3] | 9.35
NKL (IL-2 2.5 ng/mL) [11] | 8.51
SNK-6 (IL-2 2.5 ng/mL) [9] | 10.8
YT (IL-2 2.5 ng/mL) [13] | 9.19
[1] | 5.02
[4] | 0.95
[5] | 2.23
[7] | 3.89
[8] | 1.77

percent inhibition of viability [%]
Conditions | 1 nM | 10 nM | 100 nM | 1000 nM | 10000 nM
DERL-7 (IL-2 2.5 ng/mL) [27] | -3.47 | 7.74 | 27 | 64.5 | 94
IMC-1 (IL-2 20 ng/mL) [25] | -1.86 | -0.66 | 0.71 | 4.7 | 89.3
KAI3 (IL-2 2.5 ng/mL) [23] | 2.52 | -0.91 | 10.2 | 47.2 | 82
KHYG-1 (IL-2 2.5 ng/mL) [19] | -2.88 | -3.36 | 4.43 | 49.4 | 93.1
NK-92 (IL-2 2.5 ng/mL) [15] | -13.6 | -7.2 | -14 | 24.3 | 90.7
NK-YS (IL-2 2.5 ng/mL) [16] | -3.68 | -2.56 | 3.21 | 38.7 | 85
NKL (IL-2 2.5 ng/mL) [24] | -1.55 | -1.93 | 18.9 | 32.5 | 69.6
SNK-6 (IL-2 2.5 ng/mL) [22] | -4.55 | -16.4 | -11.7 | 55.8 | 78.6
YT (IL-2 2.5 ng/mL) [26] | -2.15 | -4.48 | 1.03 | 33 | 85
[17] | -8.62 | 6.8 | 13 | 1.12 | 23
[18] | -14.3 | 9 | 2.7 | 0.6 | 42.6
[20] | -5.69 | 14.3 | 5.75 | 13.8 | 44.6
[21] | -13.7 | 4.14 | 6.01 | -6.27 | 42.8
[28] | -1.18 | -2.54 | -3.5 | 11.1 | 58.7

Nc1nc(Nc2ccc3c(c2)CC[C@@H](N2CCCC2)CC3)nn1-c1cc2c(nn1)-c1ccccc1CCC2 [BGB324] (max concentration tested 10000 nM)
Conditions | drug sensitivity score
DERL-7 (IL-2 2.5 ng/mL) [14] | 14.7
IMC-1 (IL-2 20 ng/mL) [12] | 5.23
KAI3 (IL-2 2.5 ng/mL) [10] | 11.2
KHYG-1 (IL-2 2.5 ng/mL) [6] | 12.5
NK-92 (IL-2 2.5 ng/mL) [2] | 11.6
NK-YS (IL-2 2.5 ng/mL) [3] | 7.94
NKL (IL-2 2.5 ng/mL) [11] | 14.8
SNK-6 (IL-2 2.5 ng/mL) [9] | 10.3
YT (IL-2 2.5 ng/mL) [13] | 7.38
[1] | 8.94
[4] | 9.12
[5] | 16
[7] | 13.2
[8] | 11.3

percent inhibition of viability [%]
Conditions | 1 nM | 10 nM | 100 nM | 1000 nM | 10000 nM
DERL-7 (IL-2 2.5 ng/mL) [27] | 1.87 | -0.37 | 13.9 | 68 | 101
IMC-1 (IL-2 20 ng/mL) [25] | -1.43 | -0.15 | 0.68 | -4.19 | 99.9
KAI3 (IL-2 2.5 ng/mL) [23] | -3.31 | -2.86 | 2.2 | 43.9 | 101
KHYG-1 (IL-2 2.5 ng/mL) [19] | -2.69 | -1.76 | 3.04 | 59 | 103
NK-92 (IL-2 2.5 ng/mL) [15] | -4.37 | -8.81 | -0.92 | 49 | 102
NK-YS (IL-2 2.5 ng/mL) [16] | -2.01 | -2.03 | 0.13 | 14.3 | 101
NKL (IL-2 2.5 ng/mL) [24] | 6.99 | -6.74 | 6.47 | 73.7 | 102
SNK-6 (IL-2 2.5 ng/mL) [22] | 12.8 | 12.3 | -18.1 | 34.5 | 99.7
YT (IL-2 2.5 ng/mL) [26] | -0.88 | -5.6 | -1.23 | 11 | 101
[17] | -9.08 | -10.5 | -10.5 | 23.1 | 99.8
[18] | 7.14 | 3.63 | 5.02 | 83.6 | 99.8
[20] | -3.33 | -4.6 | -5.97 | 66.2 | 99.8
[21] | -7.98 | -0.57 | -5.73 | 45.8 | 100
[28] | -3.36 | -11.5 | -1.93 | 21.5 | 99.9
